# Assay results: patent publication US6506580B1, “Splice variants for human 5-HT4 serotonin receptor and their applications, in particular for screening” (Institut National de la Sante et de la Recherche Medicale …, priority 1997, dated 2003)
# Structures can show the parent of a compound that is named as a salt. Where two headings read alike, the source gives them in different places.
# Tests used:
# [1] = target: T1, receptor 5-HT4(d) (Homo sapiens, UniProt Q13639); experiment: [3H]GR113808 radioligand binding, membranes of transiently transfected COS-7 cells; parameters: The entire coding region of the cDNAs of 5-HT4(a), 5-HT4(b), 5-HT4(c) and 5-T4(d) was subcloned; expressed in transfected cells; host or cells: COS-7 cells, transient, pRC/CMV vector; cDNA amplified from human brain and ileum RNA
# Experimental: (§1) The entire coding region of the cDNAs of 5-HT4(a), 5-HT4(b), 5-HT4(c) and 5-T4(d) was subcloned into a mammalian expression vector pRC/CMV (Invitrogen, Carlsbad, Calif.). The transfections were carried out using polyethyleneimine (PEI) as described in Boussif et al. (1995). The cells were transfected using a mixture of DNA and of PEI in a ratio of 20 μmol of PEI/mg of DNA in 0.9% NaCl. For the radioligand binding assays, the COS-7 cells were seeded into culture flasks of 1.5×10^4 mm^2 one day before the transfection, at a density of 1×10^7 cells/flask, incubated for six hours with plasmid DNA (150 μg/flask) and collected 48 hours after transfection. For the measurement of cAMP formation, the COS-7 cells were seeded onto twelve-well plates one day before transfection, at a density of 5×10^5 cells/well, incubated for six hours with plasmid DNA (4 to 8 μg/well according to the experiments) and assayed 24 hours after the transfection. The cells transfected with the receptor 5-HT4 cDNA constructs were compared with the “blank”-transfected cells, which were exposed to the unmodified pRC/CMV plasmid.
# (§2) Each flask of cells intended for the radioligand binding assays was washed twice with a phosphate buffer (PBS). The cells were then scraped, collected and centrifuged at 300 g for five minutes. The pellet was resuspended in 2.5 ml of ice-cold HEPES buffer (50 mM, pH 7.4) and homogenized with an Ultraturax tissue grinder. The lysate was then centrifuged at 40,000 g for 20 minutes at 4° C. The resulting pellet was resuspended in 15 volumes of HEPES buffer (50 mM, pH 7.4). The membrane preparations were maintained in ice and used within two hours for radioligand binding assays. The protein concentrations were determined by the method of Lowry et al., 1951, using bovine serum albumin as standard.
# (§3) The saturation studies were performed using [^3H] GR113808 at 9 different concentrations ranging from 0.01 to 3.5 nM. The tubes were incubated at 25° C. for 30 minutes. The reaction-was stopped by rapid filtration, under vacuum, through Whatman GF/B filter paper using the Brandel 48R cell harvester. The filters were presoaked in a solution of PEI (0.1%) to reduce the binding to the filters. The filters were then washed with an ice-cold buffer (50 mM Tris-HCl, pH 7.4) and placed in 4 ml of “ready safe” scintillation cocktail (Beckman, Fullerton, Calif.) overnight. The radioactivity was measured using a Beckman LS 6500 C liquid scintillation counter. The binding data were analysed by computer-assisted nonlinear regression analysis (Graph Pad Prism Program, Graph Pad Software, Inc., San Diego, Calif.).
# (§4) The experiments correspond to the competition of various compounds for [^3H]GR113808 binding to membranes of transiently transfected COS-7 cells. […] The estimations of affinity are given as Ki values in nM, and are determined from IC50 values obtained by computer-assisted nonlinear curve analysis (GraphPad, Prism Software). The Ki values are representative of at least two determinations.
# [2] = target: T2, receptor 5-HT4(c) (Homo sapiens, UniProt Q13639); experiment: as above; parameters: The entire coding region of the cDNAs of 5-HT4(a), 5-HT4(b), 5-HT4(c) and 5-T4(d) was subcloned; expressed in transfected cells; host or cells: COS-7 cells, transient, pRC/CMV vector; cDNA amplified from human brain and ileum RNA
# Experimental: as §1, §2, §3, §4
# [3] = target: T3, receptor 5-HT4(a) (Homo sapiens, UniProt Q13639); experiment: as above
# T3 construct: The entire coding region of the cDNAs of 5-HT4(a), 5-HT4(b), 5-HT4(c) and 5-T4(d) was subcloned; expressed in transfected cells; host or cells: COS-7 cells, transient, pRC/CMV vector
# Experimental: as §1, §2, §3, §4
# [4] = target: T4, receptor 5-HT4(b) (Homo sapiens, UniProt Q13639); experiment: as above
# T4 construct: The entire coding region of the cDNAs of 5-HT4(a), 5-HT4(b), 5-HT4(c) and 5-T4(d) was subcloned; expressed in transfected cells; host or cells: COS-7 cells, transient, pRC/CMV vector; cDNA amplified from human brain and ileum RNA
# Experimental: as §1, §2, §3, §4
# [5] = tested on: “blank”-transfected COS-7 cells; experiment: cAMP formation in control COS-7 cells; assay type: cell-based; settings: 1 μM
# Experimental: as §1
# (§5) To measure intracellular cAMP accumulation, the transiently transfected COS-7 cells were incubated, 24 hours after transfection, in Dulbecco's modified Eagle medium (DMEM) containing 5 mM theophylline, 10 mM HEPES and 10 μM pargyline for 15 minutes at 37° C., in the presence of 5% CO2. […] The reaction was stopped by aspiration of the medium and addition of 500 μl of ice-cold ethanol. After one hour at room temperature, the cells were scraped, and everything was collected and freeze-dried. The pellet was resuspended in 350 μl of PBS and centrifuged for 5 min at 300 g. The cAMP was quantified in the supernatant using a radioimmunological assay (E.R.I.A. assay kit from Pasteur Diagnostics 79830). Student's t tests were carried out using the program Quick TEst.
# [6] = target: T3, receptor 5-HT4(a); experiment: cAMP formation in transiently transfected COS-7 cells; assay type: cell-based; settings: COS-7, 1 μM agonist, 15 minutes
# Experimental: as §1, §5
# [7] = tested on: cells expressing the isoforms of the receptor 5-HT4; experiment: cAMP formation in transiently transfected COS-7 cells, statement for all isoforms together; assay type: cell-based, human
# Experimental: The entire coding region of the cDNAs of 5-HT4(a), 5-HT4(b), 5-HT4(c) and 5-T4(d) was subcloned into a mammalian expression vector pRC/CMV (Invitrogen, Carlsbad, Calif.). The transfections were carried out using polyethyleneimine (PEI) as described in Boussif et al. (1995). The cells were transfected using a mixture of DNA and of PEI in a ratio of 20 μmol of PEI/mg of DNA in 0.9% NaCl. […] The cells transfected with the receptor 5-HT4 cDNA constructs were compared with the “blank”-transfected cells, which were exposed to the unmodified pRC/CMV plasmid. […] The reaction was stopped by aspiration of the medium and addition of 500 μl of ice-cold ethanol. After one hour at room temperature, the cells were scraped, and everything was collected and freeze-dried. The pellet was resuspended in 350 μl of PBS and centrifuged for 5 min at 300 g. The cAMP was quantified in the supernatant using a radioimmunological assay (E.R.I.A. assay kit from Pasteur Diagnostics 79830). Student's t tests were carried out using the program Quick TEst.
# [8] = target: T1, receptor 5-HT4(d); experiment: [3H]GR113808 saturation binding, membranes of stably transfected CHO cells; parameters: The entire coding region of the cDNAs of 5-HT4(a), 5-HT4(b), 5-HT4(c) and 5-T4(d) was subcloned; expressed in transfected cells; pRC/CMV vector; cDNA amplified from human brain and ileum RNA; settings: 30 minutes at 25° C., read-out: Kd, saturation analysis
# Experimental: (§6) The entire coding region of the 5-HT4(c) and 5-HT4(d) cDNAs was subcloned into a mammalian expression vector pRC/CMV (Invitrogen, Carlsbad, Calif.). The CHO cells are stably transfected by electroporation (250 V, 960 μF) with the plasmid PRc/CMV, containing the clone h5-HT4(c) or h5-HT4(d), cleaved with the restriction enzyme Kpn1 (10 μg of plasmid for 10^7 cells). The cells are cultured in HAM-F12 medium supplemented with 10% of heat-inactivated foetal calf serum. […] Twelve days later, the clones are individualized and cultured in 12-well plates. Clone selection is carried out by studying the stimulation of the cAMP formed in the presence of 1 μM serotonin. […]
# (§7) Each flask of cells intended for the radioligand binding assays was washed twice with a phosphate buffer (PBS). […] The protein concentrations were determined by the method of Lowry et al., 1951, using bovine serum albumin as standard.
# (§8) The radioligand binding studies were carried out in 500 μl of buffer (50 mM HEPES, pH 7.4) [lacuna] […] The filters were then washed with an ice-cold buffer (50 mM Tris-HCl, pH 7.4) and placed in 4 ml of “ready safe” scintillation cocktail (Beckman, Fullerton, Calif.) overnight. The radioactivity was measured using a Beckman LS 6500 C liquid scintillation counter. […]
# [9] = target: T2, receptor 5-HT4(c); experiment: as above; parameters: The entire coding region of the cDNAs of 5-HT4(a), 5-HT4(b), 5-HT4(c) and 5-T4(d) was subcloned; expressed in transfected cells; pRC/CMV vector; cDNA amplified from human brain and ileum RNA; settings: 30 minutes at 25° C., read-out: Kd, saturation analysis
# Experimental: as §6, §7, §8
# [10] = 5-HT4(d), COS-7 membranes, [3H]GR113808 at 50% of Kd, read-out: Ki, competition for [3H]GR113808 binding
# [11] = 5-HT4(c), COS-7 membranes, [3H]GR113808 at 50% of Kd, read-out: Ki, competition for [3H]GR113808 binding
# [12] = 5-HT4(a), COS-7 membranes, [3H]GR113808 at 50% of Kd, read-out: Ki, competition for [3H]GR113808 binding
# [13] = 5-HT4(b), COS-7 membranes, [3H]GR113808 at 50% of Kd, read-out: Ki, competition for [3H]GR113808 binding
# [14] = read-out: Ki, competition for [3H]GR113808 binding
# T4 sequence (Q13639 whole entry): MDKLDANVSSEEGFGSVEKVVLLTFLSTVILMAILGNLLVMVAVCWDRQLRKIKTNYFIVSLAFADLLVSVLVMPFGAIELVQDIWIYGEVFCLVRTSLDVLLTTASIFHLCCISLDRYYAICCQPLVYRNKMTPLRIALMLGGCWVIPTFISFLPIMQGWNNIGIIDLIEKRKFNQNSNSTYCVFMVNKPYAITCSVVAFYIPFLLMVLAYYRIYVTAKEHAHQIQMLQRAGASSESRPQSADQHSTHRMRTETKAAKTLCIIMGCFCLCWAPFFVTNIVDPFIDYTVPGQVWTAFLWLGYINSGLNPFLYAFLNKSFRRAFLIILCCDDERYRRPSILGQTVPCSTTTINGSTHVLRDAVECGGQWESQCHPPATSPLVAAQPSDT
# T2 sequence (Q13639 1-380 isoform Q13639-4): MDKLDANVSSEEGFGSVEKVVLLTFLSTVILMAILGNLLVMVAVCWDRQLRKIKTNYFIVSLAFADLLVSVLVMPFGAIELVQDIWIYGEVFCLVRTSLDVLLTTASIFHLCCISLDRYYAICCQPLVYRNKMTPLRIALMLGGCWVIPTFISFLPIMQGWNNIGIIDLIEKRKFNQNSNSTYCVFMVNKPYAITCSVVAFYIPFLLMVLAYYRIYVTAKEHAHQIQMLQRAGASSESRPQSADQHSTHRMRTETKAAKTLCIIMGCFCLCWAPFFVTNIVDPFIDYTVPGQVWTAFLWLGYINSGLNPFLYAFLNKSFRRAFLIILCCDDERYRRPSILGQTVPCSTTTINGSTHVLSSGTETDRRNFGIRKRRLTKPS
# T1 sequence (Q13639 1-360 isoform Q13639-3): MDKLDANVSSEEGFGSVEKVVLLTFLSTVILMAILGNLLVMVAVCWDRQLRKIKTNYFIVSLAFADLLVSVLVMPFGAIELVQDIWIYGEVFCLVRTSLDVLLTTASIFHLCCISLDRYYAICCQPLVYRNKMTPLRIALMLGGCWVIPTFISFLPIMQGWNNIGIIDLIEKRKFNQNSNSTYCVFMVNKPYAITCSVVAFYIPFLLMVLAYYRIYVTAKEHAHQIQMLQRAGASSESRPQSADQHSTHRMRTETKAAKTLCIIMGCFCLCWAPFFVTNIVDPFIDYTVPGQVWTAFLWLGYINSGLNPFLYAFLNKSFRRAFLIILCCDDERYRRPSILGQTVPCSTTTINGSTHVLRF
# T3 sequence (Q13639 1-387 isoform Q13639-2): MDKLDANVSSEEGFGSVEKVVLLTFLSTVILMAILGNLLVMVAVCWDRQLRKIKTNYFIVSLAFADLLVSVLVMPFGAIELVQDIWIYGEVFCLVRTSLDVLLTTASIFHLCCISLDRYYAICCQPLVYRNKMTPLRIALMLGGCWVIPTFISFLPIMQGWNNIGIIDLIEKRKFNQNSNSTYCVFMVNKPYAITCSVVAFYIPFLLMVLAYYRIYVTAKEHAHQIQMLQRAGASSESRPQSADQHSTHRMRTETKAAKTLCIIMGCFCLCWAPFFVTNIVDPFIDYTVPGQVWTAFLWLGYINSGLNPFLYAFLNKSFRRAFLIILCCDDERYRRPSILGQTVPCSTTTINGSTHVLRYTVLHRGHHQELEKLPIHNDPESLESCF
structure (smiles),measurement,setting,value
"Cn1cc(C(=O)OCC2CCN(CCNS(C)(=O)=O)CC2)c2ccccc21 [GR113808, ([1-[2-(methylsulphonyl)amino]ethyl]-4-piperidyl)methyl 1-methyl-1H-indole-3-carboxylate]",Ki,[1]; [10],0.078 nM
same,Ki,[2]; [11],0.41 ± 0.13 nM
same,Ki,[3]; [12],0.33 ± 0.033 nM
same,Ki,[4]; [13],0.53 ± 0.1 nM
"COc1cc(N)c(Cl)cc1C(=O)NC1CCN2CCCC1C2 (single isomer, unassigned; (+)) [Renzapride, (+)endo-4-amino-5-chloro-2-methoxy-N-(1-azabicyclo[3.3.1]non-4-yl)benzamide, hydrochloride]",effect on basal adenylate cyclase activity / basal cAMP levels,[5],no significant effect
same,increase in cAMP concentration,[6],56%
"COc1cc(N)c(Cl)cc1C(=O)OCCN1CCCCC1 [ML10302, 2-(1-piperidyl)ethyl 4-amino-5-chloro-2-methoxy-benzoate]",effect on basal adenylate cyclase activity / basal cAMP levels,[5],no significant effect
same,stimulatory effect on cAMP as % of the stimulatory effect of 5-HT,"[7]; 1 μM, COS-7 cells expressing the isoforms of the receptor 5-HT4",28 to 34%
same,antagonism of the capacity of 5-HT (1 μM) to increase basal cAMP levels,"[7]; preincubation with 1 μM prior to 5-HT, COS-7 cells expressing the isoforms",significantly antagonizes
CCn1c(=O)n(C(=O)N[C@H]2C[C@H]3CC[C@@H](C2)N3C)c2ccccc21 [BIMU1],Ki,[1],38.8 ± 12 nM
same,Ki,[2],66 ± 8.37 nM
same,Ki,[3],373 ± 119 nM
same,Ki,[4],123 ± 9 nM
"COc1ccc2[nH]cc(CCN)c2c1 [5-MeOT, 5-methoxytryptamine]",Ki,[1]; [10],553 ± 149 nM
same,Ki,[2]; [11],1020 ± 236 nM
same,Ki,[3]; [12],2080 ± 508 nM
same,Ki,[4]; [13],2440 ± 510 nM
"COc1cc(N)c(Cl)cc1C(=O)NC1CN2CCC1CC2 (stereo not drawn) [Zacopride, 4-amino-5-chloro-2-methoxy-N-(1-azabicyclo-[2,2,2]octo-3-yl)benzamide, hydrochloride]",Ki,[1]; [10],3600 ± 1840 nM
same,Ki,[2]; [14],10600 ± 2160 nM
same,Ki,[3]; [12],7750 ± 1620 nM
same,Ki,[4]; [14],11500 ± 950 nM
Cn1cc(C(=O)OCC2CCN(CCNS(C)(=O)=O)CC2)c2ccccc21 [[^3H]GR113808],Kd,[8],0.23 ± 0.03 nM
same,Kd,[9],0.42 ± 0.04 nM
same,Kd,"[1]; 5-HT4(d), COS-7 membranes, 30 minutes at 25° C., read-out: Kd, saturation analysis",0.14 ± 0.05 nM
same,Kd,"[2]; 5-HT4(c), COS-7 membranes, 30 minutes at 25° C., read-out: Kd, saturation analysis",0.3 ± 0.08 nM
same,Kd,"[3]; 5-HT4(a), COS-7 membranes, 30 minutes at 25° C., read-out: Kd, saturation analysis",0.23 ± 0.06 nM
same,Kd,"[4]; 5-HT4(b), COS-7 membranes, 30 minutes at 25° C., read-out: Kd, saturation analysis",0.62 ± 0.05 nM
